Assay results published in patent US9340549B2, “Oxazolidinone compounds and derivatives thereof” (priority 2012, dated 2016).
pEC50, pIC50: −log10 of the molar value. Where two headings read alike, the source gives them in different places.

Columns and labels:
[1] = target: 6×HIS-tankyrase 1 (1091-1325) (Homo sapiens (Human), UniProt O95271); assay: biochemical; format: biochemical
Axin2 in SW480 cells = assay: cells; format: cell-based; conditions: Homo sapiens, read-out: Axin2 384 IF EC50 IP
Experimental: Using a VPrep, 10 μL of compound/controls was transferred from the compound plate to 60 μL in the cell plate (final 0.5% DMSO, 70 μL). The mixture was incubated for 24 hours at 37° C. at 5% CO2.
The extra media was tapped out. 50 μL of 4% paraformaldehyde (Fisher, AA433689M), 0.1% Triton (Sigma, X100-100 ML) in PBS were added, and the mixture was incubated for 15 minutes at room temperature. […] The extra media was tapped out and to this was added 50 μL of buffer containing Axin2 Antibody (Sigma, SAB1100677-200 µL) at 1:10000 in PBS, 0.1% Tween-20, 1% Normal Goat Serum. The mixture was incubated for 2 hours at room temperature or overnight at 4° C. The cells were then washed twice with PBS, 0.1% Tween-20, and 1% Normal Goat Serum. […] The mixture was then incubated for 30 minutes at room temperature. The cells were then washed twice with PBS, 0.1% Tween-20, and 1% Normal Goat Serum. 50-100 μL PBS was added, and the mixture was covered with a plate seal (Fisher, NC9425162). An ArrayScan (a variation of the compartmental analysis protocol was optimized) was used to scan the plates, and data was analyzed using MEAN_RingSpotAvgIntenCh2). The Axin2 accumulation POC was calculated, and the EC50 was determined using Genedata Screener software to report Axin2 activity.

[2] = test system: total β-catenin in SW480 colorectal cells; assay: cells; format: cell-based; conditions: Homo sapiens
Outline: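 SW480 cells in growth medium (MEM alpha, 10% heat-inactivated FBS, 10 mM HEPES) treated with a 10-point, 3-fold dilution series of TNKS inhibitor for 40–48 h at 37 °C. Lysates run on an MSD sandwich immunoassay for total β-catenin, read by electrochemiluminescence.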

[3] = […] enzyme, 400 nM NAD, 60 minutes at room temperature, read-out: TNKS1 IP IC50
[4] = SW480, 24 h, SW480 cells, 24 hours
[5] = SW480 cells, 40 to 48 hours, top concentration 10 μM, read-out: SW480-Total β-Catenin IC50 IP
[6] = 0.25 nM enzyme, 400 nM NAD, 60 minutes at room temperature, read-out: TNKS1 IP IC50
[7] = SW480, read-out: SW480-Total β-Catenin IC50 IP

6×HIS-tankyrase 1 (1091-1325), sequence (O95271 1091-1325): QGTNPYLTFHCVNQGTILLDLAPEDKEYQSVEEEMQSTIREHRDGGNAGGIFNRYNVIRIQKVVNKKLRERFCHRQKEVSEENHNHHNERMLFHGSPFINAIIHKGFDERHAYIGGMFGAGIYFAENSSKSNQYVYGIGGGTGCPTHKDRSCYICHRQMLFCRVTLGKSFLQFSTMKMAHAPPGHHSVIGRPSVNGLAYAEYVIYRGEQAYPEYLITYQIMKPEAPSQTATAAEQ

SMILES	pIC50 [1, 3]	pEC50 (Axin2 in SW480 cells; [4])	pIC50 [2, 5]	further results
CC1(C)OC(=O)N(c2ccc(C(=O)Nc3cccc4cccnc34)cc2)[C@H]1c1cccnc1 [Example 11, (S)-4-(5,5-dimethyl-2-oxo-4-(pyridin-3-yl)oxazolidin-3-yl)-N-(quinolin-8-yl)benzamide]	6.41	5.15	5.82	
CC1(C)OC(=O)N(c2ccc(-n3nnc4ccccc43)cc2)[C@H]1c1ccccc1 [Example 69, (S)-3-(4-(1H-benzo[d][1,2,3]triazol-1-yl)phenyl)-5,5-dimethyl-4-phenyloxazolidin-2-one]	5.68	< 4.60	< 5.00	
CC1(C)OC(=O)N([C@H]2CC[C@H](n3c(=O)oc4cccnc43)CC2)[C@H]1c1ccccc1 [Example 49, 3-(trans-4-((4S)-5,5-dimethyl-2-oxo-4-phenyl-1,3-oxazolidin-3-yl)cyclohexyl)[1,3]oxazolo[4,5-b]pyridin-2(3H)-one]		< 4.60	6.02	pIC50 [1]: 5.46
COc1ccc(C2N(c3ccc(C(=O)Nc4cccc5cccnc45)cc3)C(=O)OC2(C)C)cc1 (racemic) [Example 111, (+/−)-(R/S)-4-(4-(4-methoxyphenyl)-5,5-dimethyl-2-oxooxazolidin-3-yl)-N-(quinolin-8-yl)benzamide]		5.14	5.61	pIC50 [1, 6]: 6.20
CC1(C)OC(=O)N([C@H]2CC[C@H](n3c(=O)[nH]c4cnc(C#N)cc43)CC2)[C@H]1c1ccccc1 [Example 54, 1-((1S,4r)-4-((S)-5,5-dimethyl-2-oxo-4-phenyloxazolidin-3-yl)cyclohexyl)-2-oxo-2,3-dihydro-1H-imidazo[4,5-c]pyridine-6-carbonitrile]	8.13	6.14	6.22	
CCC1(CC)OC(=O)N(c2ccc(C(=O)Nc3cccc4cccnc34)cc2)[C@H]1c1ccccc1 [Example 43, (S)-4-(5,5-diethyl-2-oxo-4-phenyloxazolidin-3-yl)-N-(quinolin-8-yl)benzamide]	6.10		< 5.00	pEC50 (Axin2 in SW480 cells; SW480 cells, 24 hours): < 4.60
COc1cccc(C2N(c3ccc(C(=O)Nc4cccc5cccnc45)cc3)C(=O)OC2(C)C)c1 (racemic) [Example 105, (+/−)-(R/S)-4-(4-(3-methoxyphenyl)-5,5-dimethyl-2-oxooxazolidin-3-yl)-N-(quinolin-8-yl)benzamide]		5.05	5.49	pIC50 [1, 6]: 6.82
CC1(C)OC(=O)N(c2ccc(C(=O)Nc3cccc4cccnc34)cc2)[C@H]1c1cccc(F)c1 [Example 110, (S)-4-(4-(3-fluorophenyl)-5,5-dimethyl-2-oxooxazolidin-3-yl)-N-(quinolin-8-yl)benzamide]	6.71	5.57	5.77	
CC1(C)OC(=O)N(C2CC=C(c3cnc(N)c(-c4ncccn4)c3)CC2)C1c1ccccc1 (stereo not shown) [Example 131, 3-(4-(6-amino-5-(pyrimidin-2-yl)pyridin-3-yl)cyclohex-3-en-1-yl)-5,5-dimethyl-4-phenyloxazolidin-2-one]	7.80	5.99	6.44	
CC1(C)OC(=O)N(c2ccc(-c3cc(-c4ccccn4)cnn3)cc2)[C@H]1c1ccccc1 [Example 40, (S)-5,5-dimethyl-4-phenyl-3-(4-(5-(pyridin-2-yl)pyridazin-3-yl)phenyl)oxazolidin-2-one]	6.21			pEC50 (Axin2 in SW480 cells; SW480, 24 h): < 4.60; pIC50 [2, 7]: 5.02
CC1(C)OC(=O)N(c2ccc(-c3cc(-c4cccnc4)c[nH]c3=O)cc2)[C@H]1c1ccccc1 [Example 118, (S)-5,5-dimethyl-3-(4-(6-oxo-1,6-dihydro-[3,3′-bipyridin]-5-yl)phenyl)-4-phenyloxazolidin-2-one]	6.82	< 4.60	< 5.00	
CC1(C)OC(=O)N(c2ccc(-n3c(=O)[nH]c4cnccc43)cc2)[C@H]1c1ccccc1 [Example 16, (S)-5,5-dimethyl-3-(4-(2-oxo-2,3-dihydro-1H-imidazo[4,5-c]pyridin-1-yl)phenyl)-4-phenyloxazolidin-2-one]	6.94	5.09	5.60	
CC1(C)OC(=O)N([C@H]2CC[C@H](c3nnc(-c4ccccc4)o3)CC2)[C@@H]1c1ccccc1 [Example 86, (R)-5,5-dimethyl-4-phenyl-3-((1r,4R)-4-(5-phenyl-1,3,4-oxadiazol-2-yl)cyclohexyl)oxazolidin-2-one]	7.49	5.78	< 5.00	
CC1(C)OC(=O)N([C@H]2CC[C@H](N3C(=O)C(F)(F)c4ccccc43)CC2)[C@H]1c1ccccc1 [Example 48, (S)-3-((1s,4R)-4-(3,3-difluoro-2-oxoindolin-1-yl)cyclohexyl)-5,5-dimethyl-4-phenyloxazolidin-2-one]	6.21	< 4.60	< 5.00	
COc1cccc([C@H]2N(c3ccc(C(=O)Nc4cccc5cccnc45)cc3)C(=O)OC2(C)C)c1 [Example 106, (R)-4-(4-(3-Methoxyphenyl)-5,5-dimethyl-2-oxooxazolidin-3-yl)-N-(quinolin-8-yl)benzamide]	5.73	< 4.60	5.18	
CC1(C)OC(=O)N([C@H]2CC[C@H](n3c(=O)[nH]c4cc(C#N)ccc43)CC2)[C@H]1c1ccc(F)cc1 [Example 61, 1-((1S,4r)-4-((S)-4-(4-fluorophenyl)-5,5-dimethyl-2-oxooxazolidin-3-yl)cyclohexyl)-2-oxo-2,3-dihydro-1H-benzo[d]imidazole-5-carbonitrile]	8.47	6.62	6.83	
CC1(C)OC(=O)N([C@H]2CC[C@H](n3c(=O)[nH]c4ncccc43)CC2)[C@H]1c1ccccc1 [Example 30, (S)-5,5-dimethyl-3-((1r,4S)-4-(2-oxo-2,3-dihydro-1H-imidazo[4,5-b]pyridin-1-yl)cyclohexyl)-4-phenyloxazolidin-2-one]		5.70	5.95	
CC1(C)OC(=O)N([C@H]2CC[C@H](c3cnc(N)c(-c4ncccn4)c3)CC2)[C@@H]1c1ccccc1 [Example 75, (R)-3-((1r,4R)-4-(6-amino-5-(pyrimidin-2-yl)pyridin-3-yl)cyclohexyl)-5,5-dimethyl-4-phenyloxazolidin-2-one]				pEC50 (Axin2 in SW480 cells; SW480, 24 h): 5.57; pIC50 [2, 7]: 5.80
CC1(C)OC(=O)N([C@H]2CC[C@@H](c3cnc(N)c(-c4ncccn4)c3)CC2)[C@H]1c1ccccc1 (racemic) [Example 72, 3-((1s,4s)-4-(6-amino-5-(pyrimidin-2-yl)pyridin-3-yl)cyclohexyl)-5,5-dimethyl-4-phenyloxazolidin-2-one]				pEC50 (Axin2 in SW480 cells; SW480, 24 h): 5.24; pIC50 [2, 7]: 5.18
CC1(C)OC(=O)N([C@H]2CC[C@H](c3cnc(N)c(-c4ncccn4)c3)CC2)[C@H]1c1ccccc1 (racemic) [Example 73, 3-((1r,4r)-4-(6-amino-5-(pyrimidin-2-yl)pyridin-3-yl)cyclohexyl)-5,5-dimethyl-4-phenyloxazolidin-2-one]				pEC50 (Axin2 in SW480 cells; SW480, 24 h): 6.69; pIC50 [2, 7]: 7.02
CC1(C)OC(=O)N([C@H]2CC[C@H](n3c(=O)[nH]c4cc(Cl)ccc43)CC2)[C@H]1c1ccccc1 [Example 29, (S)-3-((1r,4S)-4-(5-chloro-2-oxo-2,3-dihydro-1H-benzo[d]imidazol-1-yl)cyclohexyl)-5,5-dimethyl-4-phenyloxazolidin-2-one]		5.59	6.27	
